Results taken from article PMC8879107, “A3 Adenosine Receptor Antagonists with Nucleoside Structures and Their Anticancer Activity” (Pharmaceuticals, 2022).
“Also recorded” adds a separate entry of the source. Where two headings read alike, the source gives them in different places.

Columns and labels:
human recombinant A1AR [1] = biological target: T1, human recombinant A1AR (Homo sapiens, UniProt P30542); assay: Radioligand binding assay, displacement of [3H]CCPA in CHO cell membranes; settings: mean ± S.E., n = 3-5, read-out: hA1R (Ki nM)
T1 sequence (P30542 1-326): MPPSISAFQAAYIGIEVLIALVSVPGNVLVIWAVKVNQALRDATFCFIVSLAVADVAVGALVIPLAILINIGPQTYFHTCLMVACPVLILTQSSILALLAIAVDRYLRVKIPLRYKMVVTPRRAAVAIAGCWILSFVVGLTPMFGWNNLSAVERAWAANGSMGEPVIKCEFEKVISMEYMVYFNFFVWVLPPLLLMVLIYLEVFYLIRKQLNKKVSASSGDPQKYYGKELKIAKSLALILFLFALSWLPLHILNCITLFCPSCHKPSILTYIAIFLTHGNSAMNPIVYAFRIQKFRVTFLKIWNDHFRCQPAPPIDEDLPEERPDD
Method: (§1) [^3H]CCPA (2-chloro-N^6-cyclopentylAdo), [^3H]NECA (5′-N-ethylcarboxamidoAdo), and [^3H]HEMADO (2-hexynyl-N^6-methylAdo) were used as respective radioligands. The results are reported as Ki values in nM (± standard errors) (Table 1). In the case of A2BAR, the potency of selected compounds was determined through a functional GloSensor cAMP assay.
(§2) All pharmacological methods followed the procedures as described earlier. In brief, membranes for radioligand binding were prepared from CHO cells stably transfected with human adenosine receptor subtypes through two centrifugations at different speeds. The first low-speed (1000 g) centrifugation allowed the removing of cell fragments and nuclei, while the second, performed at high speed (100,000 g), allowed the precipitation of the crude membrane fractions.
(§3) The binding affinity of the novel compounds was evaluated using radioligand competition experiments in CHO cells stably expressing hA1AR, hA2AAR, and hA3AR subtypes. […] Results were expressed as Ki values (dissociation constants), which were calculated with the program GraphPad (GraphPAD Software, San Diego, CA, USA). Each concentration was tested three–five times in duplicate and the values are given as the mean ± standard error (S.E.).

human recombinant A2AAR [2] = biological target: T2, human recombinant A2AAR (Homo sapiens, UniProt P29274); assay: Radioligand binding assay, displacement of [3H]NECA in CHO cell membranes; settings: mean ± S.E., n = 3-5, read-out: hA2AR (Ki nM)
Method: as §1, §2, §3

human A3AR [3] = biological target: T3, human A3AR (Homo sapiens, UniProt P0DMS8); assay: Radioligand binding assay, displacement of [3H]HEMADO in CHO cell membranes; settings: for A1/A3: A3AR selectivity vs A1AR; for A1/A3 / A2A/A3: ratio of Ki values; for A2A/A3: A3AR selectivity vs A2AAR; for Ki: [3H]HEMADO, CHO membranes, mean ± S.E., n = 3-5, read-out: hA3R (Ki nM)
T3 sequence (P0DMS8 1-318): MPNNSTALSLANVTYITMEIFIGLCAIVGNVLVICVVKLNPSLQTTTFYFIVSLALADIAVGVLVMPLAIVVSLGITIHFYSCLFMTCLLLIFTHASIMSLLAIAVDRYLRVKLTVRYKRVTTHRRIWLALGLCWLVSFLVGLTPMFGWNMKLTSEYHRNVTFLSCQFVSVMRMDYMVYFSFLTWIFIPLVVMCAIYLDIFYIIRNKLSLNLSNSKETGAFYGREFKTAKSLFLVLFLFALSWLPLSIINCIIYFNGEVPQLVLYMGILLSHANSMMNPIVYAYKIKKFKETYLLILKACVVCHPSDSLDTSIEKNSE
Method: In the case of A2BAR, the potency of selected compounds was determined through a functional GloSensor cAMP assay.
as §2, §3

[4] = system: PC3 prostate cancer cell line; assay: Sulforhodamine B (SRB) cell growth inhibition assay; settings: for GI50 / CC50 / IC100: Homo sapiens, 48 h; for CC50: read-out: LC50 (μM); for IC100: read-out: TGI (μM); for TGI: PC3, 48 h, concentration to inhibit 100% of cell growth, mean ± SD
human A3AR [5] = biological target: T3, human A3AR; assay: GloSensor cAMP accumulation assay (agonism/antagonism) at A3AR in CHO cells; assay type: cell-based; design: expressed in transfected cells; host or cells: CHO cells stably expressing A3AR and the GloSensor biosensor plasmid; settings: for functional behaviour at A3AR (agonist/antagonist): forskolin 10 µM stimulated cAMP, compared to Cl-IB-MECA; for IC50: antagonism: counteracting agonist (NECA 1 μM) induced decrease of cAMP, forskolin 10 μM, mean ± S.E.
Method: CHO cells stable expressing A2B or A3ARs and the plasmid encoding the biosensor were used to study functional agonism and antagonism of understudy ligands. The desired cell number was incubated in equilibration medium containing a 3% v/v GloSensor cAMP reagent stock solution, 10% FBS and 87% of CO2 independent media. After 2 h of incubation, cells were dispensed in wells of 384 well plate and when a steady-state basal signal was obtained the agonism profile was studied, adding to wells the reference agonist NECA or compounds at different concentrations. In the case of the Gi coupled receptor A3AR Forskolin (FSK) 10 μM was added 10 min after the agonists and various luminescence readings were performed at different incubation times.
The antagonist profile of the compounds was evaluated by assessing their ability to counteract an agonist-induced increase or decrease (A2B and A3ARs, respectively) of cAMP accumulation. The cells were incubated with different antagonist concentrations and then treated with a fixed dose of NECA (10 μM for A2BAR and 1 μM for A3AR). FSK 10 μM was added 10 min after the agonists and various luminescence reads were performed at different incubation times.
Responses were expressed as percentage of the maximal relative luminescence units (RLU) and concentration–response curves were fitted by a nonlinear regression with the Prism program (GraphPAD Software, San Diego, CA, USA). The agonist or antagonist profile of compounds was expressed as EC50 or IC50, respectively. Each concentration was tested three–five times in duplicate and the values are given as the mean ± S.E.

human recombinant A1AR [6] = biological target: T1, human recombinant A1AR; settings: [3H]CCPA, CHO membranes; read-out: hA1R (Ki nM); cited from earlier work
human recombinant A2AAR [7] = biological target: T2, human recombinant A2AAR; settings: [3H]NECA, CHO membranes; read-out: hA2AR (Ki nM); cited from earlier work
human A3AR [8] = biological target: T3, human A3AR; settings: cited from earlier work
[9] = system: human prostate (PC3), colon (Caco-2) and hepatocyte (Hep G2) carcinomas; design: method as in PMID 29763615; settings: all three tumor cell lines PC3, Caco-2, Hep G2; cited from earlier work
[10] = system: hepatocellular carcinoma and moderate hepatic dysfunction; design: method as in PMID 33430312; settings: cited from earlier work
[11] = A3AR affinity repeated in Table 2, read-out: A3AR
[12] = [3H]HEMADO, CHO membranes, read-out: hA3R (Ki nM)

T2 sequence (P29274 whole entry): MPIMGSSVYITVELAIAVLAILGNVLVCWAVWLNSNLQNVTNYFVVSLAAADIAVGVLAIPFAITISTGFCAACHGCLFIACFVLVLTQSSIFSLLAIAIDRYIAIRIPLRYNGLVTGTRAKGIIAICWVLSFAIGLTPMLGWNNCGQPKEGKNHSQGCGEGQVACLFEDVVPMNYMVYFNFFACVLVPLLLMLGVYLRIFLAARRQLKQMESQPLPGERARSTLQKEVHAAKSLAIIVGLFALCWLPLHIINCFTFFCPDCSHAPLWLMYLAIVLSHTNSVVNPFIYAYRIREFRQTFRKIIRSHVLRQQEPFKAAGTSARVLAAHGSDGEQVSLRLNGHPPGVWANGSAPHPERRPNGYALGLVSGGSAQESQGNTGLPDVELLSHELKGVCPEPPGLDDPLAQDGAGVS

Compound	Ki (human recombinant A1AR [1])	Ki (human recombinant A2AAR [2])	A1/A3 (human A3AR [3])	A2A/A3 (human A3AR [3])	Ki (human A3AR [3])	GI50 [4]	CC50 [4]	IC100 [4]	TGI [4]	cytotoxic activity ([4]; PC3, at concentrations up to 500 µM)	EC50 (human A3AR [5])	functional behaviour at A3AR (agonist/antagonist) (human A3AR [5])	Ki (human recombinant A1AR [6])	Ki (human recombinant A2AAR [7])	Ki (human A3AR [8]; [11])	Ki (human A3AR [8]; [12])	anticancer effect (cell growth inhibition) [9]	IC50 (human A3AR [5])	primary end-point of phase II trial [10]	safety profile in phase II trial [10]
OC[C@H]1O[C@@H](n2cnc3c(NCC(c4ccccc4)c4ccccc4)nc(I)nc32)[C@H](O)[C@@H]1O [Compound 9, 2-Iodo-N^6-(2,2-diphenylethyl)adenosine]	182 ± 25.4 nM	1240 ± 253 nM	17 fold	113 fold	11 ± 1.8 nM	24000 ± 1200 nM	94 ± 3.5 µM	48 µM	48000 ± 3500 nM	–	–	–	–	–	–	–	–	–	–	–
OC[C@H]1O[C@@H](n2cnc3c(NCCc4ccccc4)nc(I)nc32)[C@H](O)[C@@H]1O [Compound 8, 2-Iodo-N^6-(2-phenylethyl)adenosine]	144 ± 32 nM	4120 ± 998 nM	29 fold	824 fold	5 ± 1.2 nM	42000 ± 2700 nM	301 ± 13.4 µM	113 µM	113000 ± 6700 nM	–	–	–	–	–	–	–	–	–	–	–
OC[C@H]1O[C@@H](n2cnc3c(NCCc4ccccc4)nc(Cl)nc32)[C@H](O)[C@@H]1O [Compound 15, 2-Chloro-N^6-(2-phenylethyl)adenosine]	1.64 ± 0.37 nM	660 ± 129 nM	68 fold	27,500 fold	0.024 ± 0.005 nM	51000 ± 5200 nM	> 500 µM	262 µM	262000 ± 8300 nM	no cytotoxic activity	14 ± 3.4 nM	full A3AR agonist; also recorded: A3AR full agonists	–	–	–	–	–	–	–	–
OC[C@H]1O[C@@H](n2cnc3c(NCCc4ccccc4)nc(SCCc4ccccc4)nc32)[C@H](O)[C@@H]1O [Compound 13, N^6-(2-Phenylethyl)-2-phenylethylthioadenosine]	263 ± 19 nM	3360 ± 752 nM	9 fold	112 fold	30 ± 7.1 nM	41000 ± 4200 nM	> 500 µM	> 500 µM	>500000 nM	–	–	–	–	–	–	–	–	–	–	–
CCCCC#Cc1nc(NCC(c2ccccc2)c2ccccc2)c2ncn([C@@H]3O[C@H](CO)[C@@H](O)[C@H]3O)c2n1 [Compound 4, 2-Hexynyl-N^6-(2,2-diphenylethyl)adenosine]	–	–	36 fold	6 fold	–	16000 ± 500 nM	80 ± 9.8 µM	35 µM	35000 ± 1500 nM	–	–	antagonists	984 nM	153 nM	27 nM	27 nM	very good antitumor activity	380 ± 80 nM	–	–
OC[C@H]1O[C@@H](n2cnc3c(NCC(c4ccccc4)c4ccccc4)nc(Cl)nc32)[C@H](O)[C@@H]1O [Compound 16, 2-Chloro-N^6-(2,2-diphenylethyl)-adenosine]	0.76 ± 0.2 nM	266 ± 35 nM	6 fold	2046 fold	0.13 ± 0.01 nM	35000 ± 3100 nM	253 ± 11.5 µM	94 µM	94000 ± 4100 nM	–	–	–	–	–	–	–	–	–	–	–
CCCCC#Cc1nc(NCCc2ccccc2)c2ncn([C@@H]3O[C@H](CO)[C@@H](O)[C@H]3O)c2n1 [Compound 10, 2-Hexynyl-N^6-(2-phenylethyl)adenosine]	129 ± 8.2 nM	146 ± 48 nM	86 fold	97 fold	1.5 ± 0.3 nM	13000 ± 1600 nM	452 ± 10.5 µM	77 µM	77000 ± 2900 nM	–	–	antagonists	–	–	–	–	–	31 ± 6 nM	–	–
OC[C@H]1O[C@@H](n2cnc3c(NCCc4ccccc4)nc(NCCc4ccccc4)nc32)[C@H](O)[C@@H]1O [Compound 5, 2-Phenylethylamino-N^6-(2-phenylethyl)adenosine]	–	–	1082 fold	4145 fold	–	237000 ± 9400 nM	> 500 µM	> 500 µM	>500000 nM	–	–	–	357 nM	1370 nM	0.33 nM	0.33 nM	very good antitumor activity	–	–	–
CNC(=O)[C@H]1O[C@@H](n2cnc3c(NCc4cccc(I)c4)nc(Cl)nc32)[C@H](O)[C@@H]1O [Cl-IB-MECA, 2-chloro-N^6-(3-iodobenzyl)adenosine-5′-N-methyluronamide, reference compound]	–	–	–	–	–	18000 ± 400 nM	–	44 µM	44000 ± 3300 nM	–	–	–	–	–	–	–	good anticancer effect	–	did not meet its primary end-point	favorable safety profile
OC[C@H]1O[C@@H](n2cnc3c(NCC(c4ccccc4)c4ccccc4)nc(C#Cc4ccccc4)nc32)[C@H](O)[C@@H]1O [Compound 12, N^6-(2,2-Diphenylethyl)-2-phenylethynyladenosine]	211 ± 53 nM	450 ± 84 nM	2 fold	4 fold	106 ± 25 nM	14000 ± 900 nM	59 ± 10.1 µM	29 µM	29000 ± 4900 nM	–	–	antagonists	–	–	–	–	–	153 ± 12 nM	–	–
OC[C@H]1O[C@@H](n2cnc3c(NCCc4ccccc4)nc(C#Cc4ccccc4)nc32)[C@H](O)[C@@H]1O [Compound 11, 2-Phenylethynyl-N^6-(2-phenethyl)adenosine]	809 ± 117 nM	2980 ± 271 nM	213 fold	785 fold	3.8 ± 0.6 nM	2500 ± 800 nM	151 ± 8.9 µM	19 µM	19000 ± 6100 nM	–	–	antagonists	–	–	–	–	–	79 ± 15 nM	–	–
